# Test results: PubChem BioAssay AID256 (DTP/NCI, 2004)
# Where “and” joins values, the source holds several entries; their conditions need not be identical. Identical values can stand only once. Inconclusive results and toxic doses are left out.
# System: CD2F1 mice, L1210 leukemia ip, survival T/C
# Assay: NCI In Vivo Anticancer Drug Screen. Data for tumor model L1210 Leukemia (intraperitoneal) in CD2F1 (CDF1) mice
# Conditions: higher = longer survival
# Outline: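 Each value reflects a quotient of treated over vehicle control outcomes in mice with a transplanted tumor.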
# [1] = endpoint: mean survival time, dose: 200.0 mg/kg/injection, schedule: Q04DX003 (ip), vehicle: saline with Tween-80
structure (smiles),measurement,setting,value
O=C1c2c(O)ccc(O)c2C(=O)c2c(NCCNCCO)ccc(NCCNCCO)c21,T/C,"endpoint: mean survival time, dose: 0.13 mg/kg/injection, schedule: Q01DX005 (iv), vehicle: acid diluted with saline",104 % of control
same,T/C,"endpoint: mean survival time, dose: 0.13 mg/kg/injection, schedule: Q01DX005 (iv), vehicle: clinical formulation",109 % of control
same,T/C,"endpoint: mean survival time, dose: 0.13 mg/kg/injection, schedule: Q01DX009 (ip), vehicle: clinical formulation",276 % of control and 165 % of control
same,T/C,"endpoint: mean survival time, dose: 0.19 mg/kg/injection, schedule: Q01DX009 (ip), vehicle: saline",161 % of control and 195 % of control
same,T/C,"endpoint: mean survival time, dose: 0.25 mg/kg/injection, schedule: Q01DX005 (iv), vehicle: acid diluted with saline",110 % of control
same,T/C,"endpoint: mean survival time, dose: 0.25 mg/kg/injection, schedule: Q01DX005 (iv), vehicle: saline",117 % of control
same,T/C,"endpoint: mean survival time, dose: 0.25 mg/kg/injection, schedule: Q01DX009 (ip), vehicle: acid diluted with saline",170 % of control and 196 % of control
same,T/C,"endpoint: mean survival time, dose: 0.25 mg/kg/injection, schedule: Q01DX009 (ip), vehicle: clinical formulation",404 % of control and 223 % of control
same,T/C,"endpoint: mean survival time, dose: 0.38 mg/kg/injection, schedule: Q01DX009 (ip), vehicle: saline",182 % of control and 193 % of control
same,T/C,"endpoint: mean survival time, dose: 0.5 mg/kg/injection, schedule: Q01DX005 (iv), vehicle: acid diluted with saline",153 % of control
same,T/C,"endpoint: mean survival time, dose: 0.5 mg/kg/injection, schedule: Q01DX005 (iv), vehicle: clinical formulation",163 % of control and 159 % of control
same,T/C,"endpoint: mean survival time, dose: 0.5 mg/kg/injection, schedule: Q01DX005 (iv), vehicle: saline",152 % of control
same,T/C,"endpoint: mean survival time, dose: 0.5 mg/kg/injection, schedule: Q01DX005 (oral), vehicle: acid diluted with saline",102 % of control and 107 % of control
same,T/C,"endpoint: mean survival time, dose: 0.5 mg/kg/injection, schedule: Q01DX009 (ip), vehicle: acid diluted with saline",150 % of control and 171 % of control and 328 % of control
same,T/C,"endpoint: mean survival time, dose: 0.5 mg/kg/injection, schedule: Q01DX009 (ip), vehicle: clinical formulation",228 % of control
same,T/C,"endpoint: mean survival time, dose: 1.0 mg/kg/injection, schedule: Q01DX005 (ip), vehicle: acid diluted with saline",163 % of control
same,T/C,"endpoint: mean survival time, dose: 1.0 mg/kg/injection, schedule: Q01DX005 (iv), vehicle: acid diluted with saline",157 % of control and 170 % of control
same,T/C,"endpoint: mean survival time, dose: 1.0 mg/kg/injection, schedule: Q01DX005 (iv), vehicle: clinical formulation",324 % of control
same,T/C,"endpoint: mean survival time, dose: 1.0 mg/kg/injection, schedule: Q01DX005 (iv), vehicle: saline",180 % of control
same,T/C,"endpoint: mean survival time, dose: 1.0 mg/kg/injection, schedule: Q01DX005 (oral), vehicle: acid diluted with saline",101 % of control
same,T/C,"endpoint: mean survival time, dose: 1.0 mg/kg/injection, schedule: Q01DX009 (ip), vehicle: acid diluted with saline",168 % of control and 274 % of control and 307 % of control
same,T/C,"endpoint: mean survival time, dose: 1.0 mg/kg/injection, schedule: Q01DX009 (ip), vehicle: clinical formulation",494 % of control
same,T/C,"endpoint: mean survival time, dose: 1.0 mg/kg/injection, schedule: Q04DX003 (iv), vehicle: acid diluted with saline",151 % of control
same,T/C,"endpoint: mean survival time, dose: 2.0 mg/kg/injection, schedule: Q01DX005 (ip), vehicle: acid diluted with saline",198 % of control
same,T/C,"endpoint: mean survival time, dose: 2.0 mg/kg/injection, schedule: Q01DX005 (iv), vehicle: acid diluted with saline",168 % of control and 409 % of control
same,T/C,"endpoint: mean survival time, dose: 2.0 mg/kg/injection, schedule: Q01DX005 (iv), vehicle: clinical formulation",171 % of control
same,T/C,"endpoint: mean survival time, dose: 2.0 mg/kg/injection, schedule: Q01DX005 (iv), vehicle: saline",173 % of control
same,T/C,"endpoint: mean survival time, dose: 2.0 mg/kg/injection, schedule: Q01DX005 (oral), vehicle: acid diluted with saline",102 % of control and 109 % of control
same,T/C,"endpoint: mean survival time, dose: 2.0 mg/kg/injection, schedule: Q01DX009 (ip), vehicle: acid diluted with saline",246 % of control and 354 % of control
same,T/C,"endpoint: mean survival time, dose: 2.0 mg/kg/injection, schedule: Q01DX009 (ip), vehicle: clinical formulation",190 % of control
same,T/C,"endpoint: mean survival time, dose: 2.0 mg/kg/injection, schedule: Q04DX003 (ip), vehicle: acid diluted with saline",167 % of control and 223 % of control
same,T/C,"endpoint: mean survival time, dose: 2.0 mg/kg/injection, schedule: Q04DX003 (iv), vehicle: acid diluted with saline",189 % of control
same,T/C,"endpoint: mean survival time, dose: 3.89 mg/kg/injection, schedule: Q01DX001 (ip), vehicle: acid diluted with saline",190 % of control and 221 % of control
same,T/C,"endpoint: mean survival time, dose: 3.89 mg/kg/injection, schedule: Q01DX001 (iv), vehicle: acid diluted with saline",163 % of control and 173 % of control
same,T/C,"endpoint: mean survival time, dose: 4.0 mg/kg/injection, schedule: Q01DX005 (ip), vehicle: acid diluted with saline",256 % of control
same,T/C,"endpoint: mean survival time, dose: 4.0 mg/kg/injection, schedule: Q01DX005 (iv), vehicle: acid diluted with saline",90 % of control
same,T/C,"endpoint: mean survival time, dose: 4.0 mg/kg/injection, schedule: Q01DX005 (oral), vehicle: acid diluted with saline",102 % of control and 107 % of control
same,T/C,"endpoint: mean survival time, dose: 4.0 mg/kg/injection, schedule: Q01DX009 (ip), vehicle: acid diluted with saline",118 % of control and 101 % of control and 102 % of control
same,T/C,"endpoint: mean survival time, dose: 4.0 mg/kg/injection, schedule: Q04DX003 (ip), vehicle: acid diluted with saline",211 % of control and 230 % of control
same,T/C,"endpoint: mean survival time, dose: 4.0 mg/kg/injection, schedule: Q04DX003 (iv), vehicle: acid diluted with saline",260 % of control
same,T/C,"endpoint: mean survival time, dose: 6.48 mg/kg/injection, schedule: Q01DX001 (ip), vehicle: acid diluted with saline",248 % of control and 328 % of control
same,T/C,"endpoint: mean survival time, dose: 6.48 mg/kg/injection, schedule: Q01DX001 (iv), vehicle: acid diluted with saline",180 % of control and 181 % of control
same,T/C,"endpoint: mean survival time, dose: 8.0 mg/kg/injection, schedule: Q01DX005 (ip), vehicle: acid diluted with saline",98 % of control
same,T/C,"endpoint: mean survival time, dose: 8.0 mg/kg/injection, schedule: Q01DX005 (oral), vehicle: acid diluted with saline",100 % of control and 107 % of control
same,T/C,"endpoint: mean survival time, dose: 8.0 mg/kg/injection, schedule: Q04DX003 (ip), vehicle: acid diluted with saline",320 % of control
same,T/C,"endpoint: mean survival time, dose: 8.0 mg/kg/injection, schedule: Q04DX003 (iv), vehicle: acid diluted with saline",163 % of control
same,T/C,"endpoint: mean survival time, dose: 10.8 mg/kg/injection, schedule: Q01DX001 (ip), vehicle: acid diluted with saline",207 % of control and 309 % of control
same,T/C,"endpoint: mean survival time, dose: 10.8 mg/kg/injection, schedule: Q01DX001 (iv), vehicle: acid diluted with saline",233 % of control and 261 % of control
same,T/C,"endpoint: mean survival time, dose: 16.0 mg/kg/injection, schedule: Q01DX005 (oral), vehicle: acid diluted with saline",93 % of control and 109 % of control
same,T/C,"endpoint: mean survival time, dose: 16.0 mg/kg/injection, schedule: Q04DX003 (iv), vehicle: acid diluted with saline",110 % of control
same,T/C,"endpoint: mean survival time, dose: 18.0 mg/kg/injection, schedule: Q01DX001 (ip), vehicle: acid diluted with saline",191 % of control and 344 % of control
same,T/C,"endpoint: mean survival time, dose: 18.0 mg/kg/injection, schedule: Q01DX001 (iv), vehicle: acid diluted with saline",308 % of control and 344 % of control
same,T/C,"endpoint: mean survival time, dose: 30.0 mg/kg/injection, schedule: Q01DX001 (ip), vehicle: acid diluted with saline",289 % of control
same,T/C,"endpoint: mean survival time, dose: 30.0 mg/kg/injection, schedule: Q01DX001 (iv), vehicle: acid diluted with saline",156 % of control
same,T/C,"endpoint: median survival time, dose: 0.25 mg/kg/injection, schedule: Q01DX009 (ip), vehicle: acid diluted with saline",172 % of control
same,T/C,"endpoint: median survival time, dose: 0.5 mg/kg/injection, schedule: Q01DX009 (ip), vehicle: acid diluted with saline",170 % of control and 197 % of control
same,T/C,"endpoint: median survival time, dose: 1.0 mg/kg/injection, schedule: Q01DX009 (ip), vehicle: acid diluted with saline",179 % of control and 182 % of control
same,T/C,"endpoint: median survival time, dose: 1.08 mg/kg/injection, schedule: Q04DX003 (ip), vehicle: saline",151 % of control
same,T/C,"endpoint: median survival time, dose: 1.8 mg/kg/injection, schedule: Q04DX003 (ip), vehicle: saline",175 % of control
same,T/C,"endpoint: median survival time, dose: 2.0 mg/kg/injection, schedule: Q01DX009 (ip), vehicle: acid diluted with saline",219 % of control and 370 % of control
same,T/C,"endpoint: median survival time, dose: 2.16 mg/kg/injection, schedule: Q01DX001 (iv), vehicle: saline",170 % of control
same,T/C,"endpoint: median survival time, dose: 3.6 mg/kg/injection, schedule: Q01DX001 (iv), vehicle: saline",170 % of control
same,T/C,"endpoint: median survival time, dose: 5.0 mg/kg/injection, schedule: Q04DX003 (ip), vehicle: saline",208 % of control
same,T/C,"endpoint: median survival time, dose: 6.0 mg/kg/injection, schedule: Q01DX001 (iv), vehicle: saline",196 % of control
CN(C)CC1CCCCCC(CN(C)C)C1=O (stereo not drawn),T/C,"endpoint: mean survival time, dose: 75.0 mg/kg/injection, schedule: Q01DX001 (ip), vehicle: other",102 % of control
same,T/C,"endpoint: mean survival time, dose: 150.0 mg/kg/injection, schedule: Q01DX001 (ip), vehicle: other",106 % of control
CC(C)C(Br)C(=O)NCC(=O)NCC(=O)O (stereo not drawn),T/C,"endpoint: mean survival time, dose: 100.0 mg/kg/injection, schedule: Q04DX003 (ip), vehicle: saline with Tween-80",101 % of control
same,T/C,[1],100 % of control
same,T/C,"endpoint: mean survival time, dose: 400.0 mg/kg/injection, schedule: Q04DX003 (ip), vehicle: saline with Tween-80",92 % of control
Cc1ccc(Cl)cc1N=Cc1ccccc1O,T/C,"endpoint: mean survival time, dose: 100.0 mg/kg/injection, schedule: Q01DX009 (ip), vehicle: saline with Tween-80",98 % of control
same,T/C,"endpoint: mean survival time, dose: 132.0 mg/kg/injection, schedule: Q04DX003 (ip), vehicle: saline with Tween-80",110 % of control
same,T/C,"endpoint: mean survival time, dose: 200.0 mg/kg/injection, schedule: Q01DX009 (ip), vehicle: saline with Tween-80",94 % of control
same,T/C,[1],102 % of control
same,T/C,"endpoint: mean survival time, dose: 300.0 mg/kg/injection, schedule: Q04DX003 (ip), vehicle: saline with Tween-80",100 % of control
same,T/C,"endpoint: mean survival time, dose: 400.0 mg/kg/injection, schedule: Q01DX009 (ip), vehicle: saline with Tween-80",97 % of control
CNc1ccc(CC(=O)O)cc1,T/C,"endpoint: mean survival time, dose: 100.0 mg/kg/injection, schedule: Q04DX003 (ip), vehicle: Klucel (hydroxypropylcellulose) (HPC)",92 % of control
same,T/C,"endpoint: mean survival time, dose: 200.0 mg/kg/injection, schedule: Q04DX003 (ip), vehicle: Klucel (hydroxypropylcellulose) (HPC)",93 % of control
same,T/C,"endpoint: mean survival time, dose: 400.0 mg/kg/injection, schedule: Q04DX003 (ip), vehicle: Klucel (hydroxypropylcellulose) (HPC)",96 % of control
